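Results reflect a 48-hour exposure of cells in 96-well plates to compound at five concentrations. GI50 is the concentration that inhibits growth by half.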 The source made the active and inactive calls. Cut-off read from the data, not from the text of the source: active = GI50 up to about 1.1 µM and inactive = higher.
Columns and labels:
Test in all cases: NCI anticancer screen, dose series, 48 h
[1] = system: SK-OV-3
[2] = system: MDA-MB-435
[3] = system: UACC-62
[4] = system: NCI/ADR-RES
[5] = system: TK-10
[6] = system: Malme-3M
[7] = system: KM12
[8] = system: NCI-H226
[9] = system: A498
[10] = system: HOP-62
[11] = system: PC-3
[12] = system: HCT-15
[13] = system: 786-0
[14] = system: OVCAR-3
[15] = system: CAKI-1
[16] = system: UACC-257
[17] = system: LOX IMVI
[18] = system: RPMI-8226

Structure (SMILES)	GI50 [1]	GI50 [2]	GI50 [3]	GI50 [4]	GI50 [5]	GI50 [6]	GI50 [7]	GI50 [8]	GI50 [9]	GI50 [10]	GI50 [11]	GI50 [12]	GI50 [13]	GI50 [14]	GI50 [15]	GI50 [16]	GI50 [17]	GI50 [18]
OC(C/C=N/Nc1ccccc1)(C(F)(F)Cl)C(F)(F)Cl	> 10 µM (inactive)	7.35 µM (inactive)	> 10 µM (inactive)	> 10 µM (inactive)	> 10 µM (inactive)	> 10 µM (inactive)	> 10 µM (inactive)	7.38 µM (inactive)	> 10 µM (inactive)	> 10 µM (inactive)	4.05 µM (inactive)	5.2 µM	> 10 µM (inactive)	4.84 µM (inactive)	7.43 µM (inactive)	> 10 µM (inactive)	> 10 µM (inactive)	–
CCOC(=O)/C(C#N)=C(O)/C(=C\c1ccc(Br)cc1)NC(=O)c1ccccc1	> 100 µM (inactive)	–	> 100 µM (inactive)	–	> 100 µM (inactive)	> 100 µM (inactive)	> 100 µM (inactive)	30.4 µM (inactive)	> 100 µM (inactive)	> 100 µM (inactive)	–	37.4 µM	> 100 µM (inactive)	> 100 µM (inactive)	> 100 µM (inactive)	> 100 µM (inactive)	–	22.4 µM (inactive)
Nc1nc(Cl)cc(NCCCCCNc2cc(Cl)nc(N)n2)n1	> 100 µM (inactive)	–	24 µM (inactive)	–	> 100 µM (inactive)	–	> 100 µM (inactive)	41.4 µM (inactive)	–	> 100 µM (inactive)	–	73.6 µM	> 100 µM (inactive)	42 µM (inactive)	17 µM (inactive)	46.8 µM (inactive)	25.1 µM (inactive)	33.5 µM (inactive)
COc1cccc(NC(=O)CC(=O)N2N=C(n3ccc4ccccc43)CC2c2ccccc2)c1 (centres undefined)	> 100 µM (inactive)	–	> 100 µM (inactive)	–	> 100 µM (inactive)	> 100 µM (inactive)	> 100 µM (inactive)	–	> 100 µM (inactive)	> 100 µM (inactive)	–	> 100 µM	> 100 µM (inactive)	> 100 µM (inactive)	–	> 100 µM (inactive)	> 100 µM (inactive)	> 100 µM (inactive)
CN(C)C(=O)CC(C(=O)O)c1c[nH]c2ccccc12 (centres undefined)	–	–	> 100 µM (inactive)	–	> 100 µM (inactive)	> 100 µM (inactive)	> 100 µM (inactive)	–	> 100 µM (inactive)	> 100 µM (inactive)	–	> 100 µM	> 100 µM (inactive)	> 100 µM (inactive)	> 100 µM (inactive)	> 100 µM (inactive)	> 100 µM (inactive)	> 100 µM (inactive)
CC(C)(C)c1cc([N+](=O)[O-])cc([N+](=O)[O-])c1O [DINOTERB]	> 10 µM (inactive)	> 10 µM (inactive)	> 10 µM (inactive)	> 10 µM (inactive)	> 10 µM (inactive)	–	> 10 µM (inactive)	> 10 µM (inactive)	–	> 10 µM (inactive)	5.52 µM (inactive)	> 10 µM	> 10 µM (inactive)	> 10 µM (inactive)	5.6 µM (inactive)	8.57 µM (inactive)	> 10 µM (inactive)	4.12 µM (inactive)
COc1ccc2[nH]c3c4c(cc(-c5ccccc5)c3c2c1)C(=O)N(c1ccccc1)C4=O	26.3 µM (inactive)	–	21.7 µM (inactive)	–	64.9 µM (inactive)	20.4 µM (inactive)	33.3 µM (inactive)	25.1 µM (inactive)	> 45.6 µM (inactive)	14.2 µM (inactive)	–	41.4 µM	4.9 µM (inactive)	17.9 µM (inactive)	27 µM (inactive)	35.3 µM (inactive)	16.1 µM (inactive)	> 60 µM (inactive)
O=C(O)C1=NN=C(C(=O)O)NN1	37.9 µM (inactive)	–	> 100 µM (inactive)	–	> 100 µM (inactive)	> 100 µM (inactive)	> 100 µM (inactive)	> 100 µM (inactive)	–	–	–	> 100 µM	> 100 µM (inactive)	> 100 µM (inactive)	> 100 µM (inactive)	> 100 µM (inactive)	> 100 µM (inactive)	43.9 µM (inactive)
